Data taken from US20050113367A1, “Pharmaceutical composition” (SANKYO COMPANY, LIMITED, priority 2000, published 2005).

Test system: spontaneously hypertensive rats (SHRs)
Test: Hypotensive effects elicited by co-administration of CS-866 and hydrochlorothiazide (telemetry blood pressure in SHRs)
Type: in vivo, rat
Conditions: male SHRs, in mmHg (unit assumed)
Description: Hypotensive Effects Elicited by Co-Administration of CS-866 and Hydrochlorothiazide
Twenty-eight male spontaneously hypertensive rats aged 20 weeks (SHRs, SPF grade, purchased from Hoshino Laboratory Animals) were used. A transmitter of a telemeter (TA11PA-C40, DATA SCIENCES Inc.) was implanted in each SHR for recording blood pressure. After recovery from the surgical operations, blood pressure was monitored in the rats from the age of 24 weeks. The rats were orally given 0.5% carboxymethylceflulose solution (CMC, 2 ml/kg) for 7 successive days (once daily) by gavage. They were divided into 4 groups (7 SHRs per group) so as to give equally averaged blood pressure levels in the groups based on the blood pressure recorded on the 5th and 6th days after the CMC solution was initiated. The rats were orally treated with 0.5% CMC solution (2 ml/kg, control group) or test substance suspended in 0.5% CMC solution (2 ml/kg) for 14 successive days (once daily). Blood pressure was monitored 1 day prior to the drug administration and on the 7th and 14th days after the drug was initiated. The group composition, test substances, doses and blood pressure (the 24 hour mean blood pressure A standard error on the respective monitoring days) are summarized in Tables 1 and 2.
The test substances were hydrochlorothiazide (HCTZ), CS-866, and HCTZ and CS-866. HCTZ was prepared so as to be 10 mg/2 ml of final concentration with 0.5% CMC solution. CS-866 was suspended in 0.5% CMC solution so as to be at a final concentration of 1 mg/2 ml. CS-866 and HCTZ solution was prepared so as to be at a final concentration of [10 mg (HCTZ)+1 mg (CS-866)]/2 ml with 0.5% CMC solution.

[1] = 7th day after administration, oral once daily, HCTZ 10 mg/kg, CS-866 1 mg/kg, or both
[2] = 14th day after administration, oral once daily, HCTZ 10 mg/kg, CS-866 1 mg/kg, or both
[3] = 1 day before administration (baseline), oral, once daily, n=7 per group

Compound | Blood pressure levels (24 hour mean blood pressure ± standard error) [1] | Blood pressure levels (24 hour mean blood pressure ± standard error) [2] | Blood pressure levels (24 hour mean blood pressure ± standard error) [3]
CCCc1nc(C(C)(C)O)c(C(=O)OCc2oc(=O)oc2C)n1Cc1ccc(-c2ccccc2-c2nnn[nH]2)cc1 [CS-866, (5-methyl-2-oxo-1,3-dioxolen-4-yl)methyl 4-(1-hydroxy-1-methylethyl)-2-propyl-1-[2′-(1H-tetrazol-5-yl)biphenyl-4-ylmethyl]imidazol-5-carboxylate] | 147 ± 4 | 148 ± 4 | 167 ± 6
NS(=O)(=O)c1cc2c(cc1Cl)NCNS2(=O)=O [HCTZ, 6-chloro-3,4-dihydro-2H-1,2,4,-benzothiadiazin-7-sulfonamide 1,1-dioxide] | 152 ± 6 | 156 ± 6 | 165 ± 6
